From patent US6737383B1, “Herbicidal oxadiazolidines” (priority 1999, dated 2004)

Legend:
soybean = test: Test B pre/postemergence soybean; format: in vivo, Glycine max
How it was run: (§1)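 Test chemicals in a non-phytotoxic solvent mixture with surfactant were sprayed preemergence onto planted seeds and postemergence onto plants 2 to 18 cm tall (1- to 4-leaf stage). After twelve to sixteen days in a greenhouse, injury was visually rated against untreated controls from 0 (no effect) to 10 (complete control).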

bamyardgrass = test: Test B flood test barnyardgrass; format: in vivo, Echinochloa crus-galli
How it was run: (§2)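 Flood test on plants grown to the 2-leaf stage; treated plants kept in greenhouse twelve to sixteen days, then visually rated against controls on a 0 (no effect) to 10 (complete control) scale.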

corn = test: Test B pre/postemergence corn; format: in vivo, Zea mays
How it was run: as §1

velvetleaf = test: Test B pre/postemergence velvetleaf; format: in vivo, Abutilon theophrasti
How it was run: as §1

crabgrass = test: Test B pre/postemergence crabgrass; format: in vivo, Digitaria sanguinalis
How it was run: as §1

wild oat = test: Test B pre/postemergence wild oat; format: in vivo, Avena fatua
How it was run: as §1

sugar beet = test: Test B pre/postemergence sugar beet; format: in vivo, Beta vulgaris
How it was run: as §1

cocklebur = test: Test B pre/postemergence cocklebur; format: in vivo, Xanthium strumarium
How it was run: as §1

surinam grass = test: Test B pre/postemergence surinam grass; format: in vivo, Brachiaria decumbens
How it was run: as §1

rape = test: Test B pre/postemergence rape; format: in vivo, Brassica napus; details: for Rape plant response rating: Rate 62 g/ha
How it was run: as §1

pigweed = test: Test B pre/postemergence pigweed; format: in vivo, Amaranthus retroflexus
How it was run: as §1

blackgrass = test: Test B pre/postemergence blackgrass; format: in vivo, Alopecurus myosuroides
How it was run: as §1

giant foxtail = test: Test B pre/postemergence giant foxtail; format: in vivo, Setaria faberii
How it was run: as §1

rice = test: Test B flood test rice; format: in vivo, Oryza sativa
How it was run: as §2

morningglory = test: Test B pre/postemergence morningglory; format: in vivo, Ipomoea hederacea
How it was run: as §1

duck salad = test: Test B flood test duck salad; format: in vivo, Heteranthera limosa
How it was run: as §2

smallflower flatsedge = test: Test B flood test smallflower flatsedge; format: in vivo, Cyperus difformis
How it was run: as §2

bedstraw = test: Test B pre/postemergence bedstraw; format: in vivo, Galium aparine; details: for Bedstraw plant response rating: Rate 62 g/ha
How it was run: as §1

wheat = test: Test B pre/postemergence wheat; format: in vivo, Triticum aestivum
How it was run: as §1

purple nutsedge = test: Test B pre/postemergence purple nutsedge; format: in vivo, Cyperus rotundus
How it was run: as §1

[1] = Postemergence, Rate 125 g/ha, scale 0 to 10, 0 is no effect, 10 is complete control
[2] = Preemergence, Rate 62 g/ha, scale of 0 to 10 where 0 is no effect and 10 is complete control
[3] = Preemergence, Rate 250 g/ha, scale of 0 to 10 where 0 is no effect and 10 is complete control
[4] = Preemergence, Rate 500 g/ha, scale of 0 to 10 where 0 is no effect and 10 is complete control
[5] = Rate 62 g/ha, Postemergence, scale 0 to 10 (0 no effect, 10 complete control)
[6] = Rate 500 g/ha, Postemergence, scale 0 to 10, 0 no effect, 10 complete control
[7] = Rate 62 g/ha, headed Pre-emergence (flood test species), scale 0 to 10 (0 no effect, 10 complete control)
[8] = Rate 125 g/ha, Pre-emergence, flood test species, scale 0 to 10 where 0 is no effect and 10 is complete control
[9] = Rate 250 g/ha, Pre-emergence, flood-test species, scale 0 to 10, 0 is no effect, 10 is complete control
[10] = Rate 500 g/ha, Pre-emergence, flood test species, scale 0 to 10 (0 no effect, 10 complete control)
[11] = Rate 250 g/ha, Postemergence, scale of 0 to 10 where 0 is no effect and 10 is complete control
[12] = Preemergence, scale of 0 to 10 where 0 is no effect and 10 is complete control
[13] = Postemergence, scale 0 to 10 (0 no effect, 10 complete control)

Compound: CC(C)N(C(=O)n1oc(=O)n(-c2ccc3ccccc3c2)c1=O)c1ccc(F)cc1 [Compound 329]
- Plant response rating, Soybean (soybean; [1]): 1
- Soybean plant response rating (soybean; [2]): 0
- Soybean plant response rating (0 to 10 scale) (soybean; Preemergence, Rate 125 g/ha): 0
- Soybean plant response rating (soybean; [3]): 0
- Soybean plant response rating (soybean; [4]): 0
- Soybean plant response rating (soybean; [5]): 1
- Plant response rating, Soybean (soybean; [6]): 2
- Barnyardgrass plant response rating (bamyardgrass; [7]): 0
- Barnyardgrass plant response rating (bamyardgrass; [8]): 0
- Barnyardgrass plant response rating (bamyardgrass; [9]): 0
- Barnyardgrass plant response rating (bamyardgrass; [10]): 0
- Plant response rating, Corn (corn; [1]): 0
- Corn plant response rating (corn; [2]): 0
- Corn plant response rating (0 to 10 scale) (corn; Preemergence, Rate 125 g/ha): 0
- Corn plant response rating (corn; [3]): 0
- Corn plant response rating (corn; [4]): 0
- Corn plant response rating (corn; [5]): 0
- Plant response rating, Corn (corn; [6]): 0
- Plant response rating, Velvetleaf (velvetleaf; [1]): 0
- Velvetleaf plant response rating (velvetleaf; [2]): 0
- Velvetleaf plant response rating (0 to 10 scale) (velvetleaf; Preemergence, Rate 125 g/ha): 0
- Velvetleaf plant response rating (velvetleaf; [3]): 0
- Velvetleaf plant response rating (velvetleaf; [4]): 0
- Velvetleaf plant response rating (velvetleaf; [5]): 0
- Plant response rating, Velvetleaf (velvetleaf; [6]): 0
- Plant response rating, Crabgrass (crabgrass; [1]): 0
- Crabgrass plant response rating (crabgrass; [2]): 0
- Crabgrass plant response rating (0 to 10 scale) (crabgrass; Preemergence, Rate 125 g/ha): 0
- Crabgrass plant response rating (crabgrass; [3]): 0
- Crabgrass plant response rating (crabgrass; [4]): 3
- Crabgrass plant response rating (crabgrass; [5]): 0
- Plant response rating, Crabgrass (crabgrass; [6]): 0
- Plant response rating, Wild oats (wild oat; [1]): 0
- Wild oats plant response rating (wild oat; [2]): 0
- Wild oats plant response rating (0 to 10 scale) (wild oat; Preemergence, Rate 125 g/ha): 0
- Wild oats plant response rating (wild oat; [3]): 0
- Wild oats plant response rating (wild oat; [4]): 0
- Wild oats plant response rating (wild oat; [5]): 0
- Plant response rating, Wild oats (wild oat; [6]): 0
- Plant response rating, Sugarbeets (sugar beet; [1]): 0
- Sugarbeets plant response rating (sugar beet; [2]): 0
- Sugarbeets plant response rating (0 to 10 scale) (sugar beet; Preemergence, Rate 125 g/ha): 0
- Sugarbeets plant response rating (sugar beet; [3]): 0
- Sugarbeets plant response rating (sugar beet; [4]): 0
- Sugarbeets plant response rating (sugar beet; [5]): 0
- Plant response rating, Sugarbeets (sugar beet; [6]): 0
- Plant response rating, Cocklebur (cocklebur; [1]): 0
- Cocklebur plant response rating (cocklebur; [2]): 0
- Cocklebur plant response rating (0 to 10 scale) (cocklebur; Preemergence, Rate 125 g/ha): 0
- Cocklebur plant response rating (cocklebur; [3]): 0
- Cocklebur plant response rating (cocklebur; [4]): 0
- Cocklebur plant response rating (cocklebur; [5]): 0
- Plant response rating, Cocklebur (cocklebur; [6]): 4
- Plant response rating, B. signalgrass (surinam grass; [1]): 0
- B. signalgrass plant response rating (surinam grass; [2]): 0
- B. signalgrass plant response rating (0 to 10 scale, 0 is no effect, 10 is complete control) (surinam grass; Preemergence, Rate 125 g/ha): 0
- B. signalgrass plant response rating (surinam grass; [3]): 0
- B. signalgrass plant response rating (surinam grass; [4]): 0
- B. signalgrass plant response rating (surinam grass; [5]): 0
- Plant response rating, B. signalgrass (surinam grass; [11]): 0
- Plant response rating, B. signalgrass (surinam grass; [6]): 0
- Plant response rating, Rape (rape; [1]): 0
- Rape plant response rating (rape; [12]): 0
- Rape plant response rating (0 to 10 scale) (rape; Preemergence, Rate 125 g/ha): 0
- Rape plant response rating (rape; [13]): 0
- Plant response rating, Rape (rape; [6]): 0
- Plant response rating, Redroot pigweed (pigweed; [1]): 0
- Redroot pigweed plant response rating (pigweed; [2]): 0
- Redroot pigweed plant response rating (0 to 10 scale) (pigweed; Preemergence, Rate 125 g/ha): 0
- Redroot pigweed plant response rating (pigweed; [3]): 0
- Redroot pigweed plant response rating (pigweed; [4]): 0
- Redroot pigweed plant response rating (pigweed; [5]): 0
- Plant response rating, Redroot pigweed (pigweed; [6]): 0
- Plant response rating, Blackgrass (blackgrass; [1]): 0
- Blackgrass plant response rating (blackgrass; [2]): 0
- Blackgrass plant response rating (0 to 10 scale) (blackgrass; Preemergence, Rate 125 g/ha): 0
- Blackgrass plant response rating (blackgrass; [3]): 0
- Blackgrass plant response rating (blackgrass; [4]): 0
- Blackgrass plant response rating (blackgrass; [5]): 0
- Plant response rating, Blackgrass (blackgrass; [11]): 0
- Plant response rating, Blackgrass (blackgrass; [6]): 0
- Plant response rating, Giant foxtail (giant foxtail; [1]): 0
- Giant foxtail plant response rating (giant foxtail; [2]): 0
- Giant foxtail plant response rating (0 to 10 scale) (giant foxtail; Preemergence, Rate 125 g/ha): 0
- Giant foxtail plant response rating (giant foxtail; [3]): 0
- Giant foxtail plant response rating (giant foxtail; [4]): 3
- Giant foxtail plant response rating (giant foxtail; [5]): 0
- Plant response rating, Giant foxtail (giant foxtail; [6]): 0
- Rice plant response rating (rice; [7]): 0
- Rice plant response rating (rice; [8]): 0
- Rice plant response rating (rice; [9]): 0
- Rice plant response rating (rice; [10]): 0
- Plant response rating, Morningglory (morningglory; [1]): 0
- Morningglory plant response rating (morningglory; [2]): 0
- Morningglory plant response rating (0 to 10 scale) (morningglory; Preemergence, Rate 125 g/ha): 0
- Morningglory plant response rating (morningglory; [3]): 0
- Morningglory plant response rating (morningglory; [4]): 0
- Morningglory plant response rating (morningglory; [5]): 0
- Plant response rating, Morningglory (morningglory; [6]): 0
- Ducksalad plant response rating (duck salad; [7]): 0
- Ducksalad plant response rating (duck salad; [8]): 0
- Ducksalad plant response rating (duck salad; [9]): 0
- Ducksalad plant response rating (duck salad; [10]): 0
- S. Flatsedge plant response rating (smallflower flatsedge; [7]): 0
- S. Flatsedge plant response rating (smallflower flatsedge; [8]): 0
- S. Flatsedge plant response rating (smallflower flatsedge; [9]): 0
- S. Flatsedge plant response rating (smallflower flatsedge; [10]): 0
- Plant response rating, Bedstraw (bedstraw; [1]): 0
- Bedstraw plant response rating (bedstraw; [12]): 0
- Bedstraw plant response rating (0 to 10 scale) (bedstraw; Preemergence, Rate 125 g/ha): 0
- Bedstraw plant response rating (bedstraw; [13]): 0
- Plant response rating, Wheat (wheat; [1]): 0
- Wheat plant response rating (wheat; [2]): 0
- Wheat plant response rating (0 to 10 scale) (wheat; Preemergence, Rate 125 g/ha): 0
- Wheat plant response rating (wheat; [3]): 0
- Wheat plant response rating (wheat; [4]): 0
- Wheat plant response rating (wheat; [5]): 0
- Plant response rating, Wheat (wheat; [6]): 0
- Plant response rating, Nutsedge (purple nutsedge; [1]): 0
- Nutsedge plant response rating (purple nutsedge; [2]): 0
- Nutsedge plant response rating (purple nutsedge; [3]): 0
- Nutsedge plant response rating (purple nutsedge; [5]): 0
- Plant response rating, Nutsedge (purple nutsedge; [6]): 0
